In a melting point compilation (Tetko et al.; mined from patent text by program, amines drawn as free bases though some values may be those of a salt):

| melting point | SMILES |
| --- | --- |
| 186 to 188 °C | O=C1NCCSc2ccsc21 |
| 185 to 189 °C | CC(=O)Nc1ccc(Br)c2c1CCCC2 |
| 138 to 140 °C | COc1nc(C)c(C(C)OC(=O)CCC(=O)O)cc1NC(=O)N1CCN(c2cc(C)cc(C)c2)CC1 (stereo unspecified) |
| 88 °C | CCOc1c(C(O)CCc2ccn(C)c2)c(OCCN2CCCCC2)c(OC)c2occc12 (stereo unspecified) |
| 138 to 140 °C | O=C(Oc1ccccc1)N1Cc2ccccc2C2(Cc3ccc(Cl)cc3O2)C1 (stereo unspecified) |
| 123 to 125 °C | CC1C(=O)N(c2ccc(Cc3ccccc3)cc2)C(=S)N1c1ccccc1 (stereo unspecified) |
| 124 to 125 °C | CC(C)(OCc1nn(Cc2ccccc2)c2ccccc12)C(=O)NNc1ccccc1 |
| 225 to 230 °C | CC1c2ccccc2-c2ccccc2N1S(=O)(=O)c1ccc(O)c(C(=O)O)c1 (stereo unspecified) |
| 213 to 214 °C | N#Cc1ccc(C(=O)Nc2ccc(OCCN3CCOCC3)c3ccccc23)cc1 |
| 79 °C | CC(C)Oc1cc(-n2c(=O)cc(C(F)(F)F)n(C)c2=O)c(F)cc1Br |
| 98.5 to 101 °C | Cn1nnnc1SCCCS(=O)(=O)c1ccccn1 |
| 151 to 152 °C | NC(=O)c1cc2c(OCCCN3CCN(c4cc(N5CCCC5)nc(N5CCCC5)n4)CC3)cccc2[nH]1 |
| 143 to 144 °C | O=C(c1ccc(-c2cnc3c(c2)N(Cc2cc(F)ccc2F)CCN3)cc1)N1CCC[C@H]1CN1CCCC1 |
| 205 °C | COc1ccc(CNc2nc(CCCC(=O)O)nc3oc4c(c23)CCCC4)cc1Cl |
| 153 to 154 °C | COc1nc(Nc2ccc(F)cc2F)c(C(=O)Cl)cc1F |
| 180 °C | Cn1cncc1C(O)(c1ccc(F)cc1)c1ccc2c(c1)C(c1cccc(Cl)c1)n1nnnc1N2 (stereo unspecified) |
| 129 to 130 °C | Nc1n[nH]c2cccc(C(F)(F)F)c12 |
| 183 to 184 °C | O=C(NC(Cc1ccccc1)C(=O)O)c1ccccc1 (stereo unspecified) |
| 158 to 160 °C | CN1CCc2cccc3c2C1Cc1ccc(O)c(O)c1-3 (stereo unspecified) |
| 247 to 248 °C | CCc1cnc2ccnn2c1O |
| 75 °C | Cc1cc(C)c2c(c1)NC(C)C2 (stereo unspecified) |
| 151 to 154 °C | CCN1C(=O)C(C)=C2C[C@@]3(C)C(=C[C@@H](OC)[C@H](O)[C@@H]3C)C=C21 |
| 252 °C | CCOC(=O)c1c(N2CCN(C(=O)c3cccs3)CC2)c2sccc2[nH]c1=O |
| > 300 °C | COc1ccc(C(=O)Nc2c(Cl)cncc2Cl)c2c1oc1ccc(NC(=O)C(F)(F)F)cc12 |

| melting point | SMILES |
| --- | --- |
| 128 to 129 °C | Nc1c(CCO)cccc1C(O)c1ccc(Br)cc1 (stereo unspecified) |
| 132 to 133 °C | O=C(CCCc1cnoc1-c1ccccc1)Nc1ccc(-n2ccnc2)cc1 |
| 108 to 110 °C | COC(=O)C[C@@H](CC(=O)C=Cc1c(-c2ccc(F)cc2)c(-c2ccc(F)cc2)c(C(=O)Nc2ccc(S(N)(=O)=O)cc2)n1C(C)C)O[Si](C)(C)C(C)(C)C |
| 126 to 129 °C | CCCc1c2c(c(F)c3c(=O)cc(C(=O)OCC)oc13)CCCC2 |
| 154 to 156 °C | CCN(CC)CCCNc1ncc2cc(-c3c(Cl)cccc3Cl)c(=N)n(C)c2n1 |
| 186 °C | CCC1CC(=O)N(CCc2ccc(NC(=O)c3cccs3)cc2)N=C1c1ccc(OC)c(OC)c1 (stereo unspecified) |
| 298 °C | O=C1Nc2ccc(I)cc2C1=NNC(=O)c1ccc(OCc2ccccc2)cc1 |
| 212 to 214 °C | CSc1nccc(CC(=O)c2ccc(F)cc2)n1 |
| 82.5 to 83.5 °C | COc1ccc(C(C)(C)C)cc1C(=O)c1ccc([N+](=O)[O-])cc1Cl |
| 114 to 115 °C | CC(C)(C)c1ccc(C(N)=O)cc1[N+](=O)[O-] |
| 188 to 189 °C | S=c1[nH]ccn1C1CCCc2ccccc21 (stereo unspecified) |
| 183 to 184 °C | Cc1cc(Cc2nnc(Nc3ccc(Cl)cc3)c3ccccc23)ccn1 |
| 158 to 160 °C | CCOC(C)=C(C#N)C(=O)Nc1ccccc1F |
| 68 to 70 °C | C=C1c2ccccc2CC(=O)Cc2ccccc21 |
| 90 °C | CC(SC1COC(c2cccc(C(=O)Nc3ccc(Cl)cc3)c2)OC1)C(O)(Cn1cncn1)c1ccc(F)cc1F (stereo unspecified) |
| 98 to 101 °C | CC(=O)ON1C(C)(C)CC(OC(=O)c2cccc(C(=O)OC3CC(C)(C)N(OC(C)=O)C(C)(C)C3)c2)CC1(C)C |
| 159 to 161 °C | CC(=O)c1ccc(N(C)Cc2ccccc2)c(S(N)(=O)=O)c1 |
| 159 to 160 °C | CCCCCc1cccc2c1C(=O)N(OC1C(CO)OC(n3cnc4c(N)ncnc43)C1O)C2=O (stereo unspecified) |
| 208 to 210 °C | Cn1cc(S(=O)(=O)NCc2ccccc2)c(=O)c2ccc(Cl)cc21 |
| 219 to 220 °C | O=C1N(Cc2cccnc2C(F)(F)F)c2ccccc2C12COc1cc3c(cc12)OCCO3 (stereo unspecified) |
| 220 to 221 °C | C=CCn1c(=O)c2c(nc(/C=C/c3cc(OC)c(OC(C)=O)c(OC)c3)n2C)n(CC=C)c1=O |
| 154 to 156 °C | CONCc1nc2c(N)nc(C)c(C)c2n1CC(C)C |
| 138 to 139 °C | Cc1nn(C)c(-c2ccccc2)c1N |
| 160 to 162 °C | COC(=O)c1nn(-c2ccc(I)cc2F)cc(OC)c1=O |

| melting point | SMILES |
| --- | --- |
| 148 to 150 °C | CCCCc1nc2c(N)nc3cccnc3c2n1CCCCNC(=O)OC(C)(C)C |
| 109 to 111 °C | CC(C)Oc1c(-c2ccc(S(C)(=O)=O)cc2)cnn(Cc2ccccc2)c1=O |
| 154 to 156 °C | CCc1nn(-c2cc(NC(=O)c3ccccc3)ccc2Br)c(=O)n1Cc1ccc(-c2ccccc2S(=O)(=O)NC(=O)OC(C)(C)C)cc1F |
| 50 °C | COC(=O)CCC/C=C/c1ccc2cc(C)ccc2c1 |
| 168 °C | Cc1c(CCl)nc2c(NC(=O)C(C)(C)C)cccn12 |
| 114 to 115 °C | CCCc1c(O)c(C(C)=O)cc(C(C)=O)c1NCC |
| 180 to 182 °C | CCCCCc1c(C(C)(C)O)nc(C(C)C)c(CO)c1-c1ccc(F)cc1 |
| 146 °C | COc1ccc(Cc2nc3c(c4c2[nH]c2ccccc24)C(O)CC(C)(C)C3)cc1 (stereo unspecified) |
| 121 to 123 °C | CC(C)Oc1cc(CCCOc2nn(Cc3ccccc3)cc2CC(=O)O)n(Cc2ccc(F)cc2Cl)n1 |
| 102 to 106 °C | CS(=O)(=O)c1ccc(C(CC2CCCC2)C(=O)Nc2ccc3ccccc3n2)cc1[N+](=O)[O-] (stereo unspecified) |
| 225 to 228 °C | O=C(O)c1cccc(-n2c(-c3ccccc3)cc3c2-c2ccccc2CC3)c1 |
| 246 °C | CCSc1nsc(NC(=O)NC)c1C#N |
| 105 to 106 °C | N#Cc1ccc2c(c1)COC2(c1ccc(F)cc1)c1ccc(F)cc1 |
| 249 to 250 °C | O=c1c(C2=Nc3ccccc3S(=O)(=O)N2)c(O)c2ccccc2n1CCCC(F)(F)F |
| 164 to 168 °C | COc1cc(Cc2cnc(N)nc2N)cc(OC)c1 |
| > 300 °C | CN(C)c1ccc(N=Nc2ccc(S(=O)(=O)NCc3ccc4c(c3)-c3n[nH]c(=O)c5cccc(c35)O4)cc2)cc1 |
| 160 °C | CC(C)(C)OC(=O)[C@H]1C[C@H](C(=O)Nc2ccccc2)[C@@H](c2ccccc2)N1C(=O)CNC(=O)Nc1cccc(C(=O)O)c1 (racemic) |
| 103 to 105 °C | O=Cc1cc(Cl)ccc1Oc1ccccc1[N+](=O)[O-] |
| 156 to 157 °C | CSc1noc(-c2ccc(OCCOc3ccc(Br)cc3)cc2)c1C#N |
| 134 to 135 °C | COC1SC(c2ccncc2)=C(C)NC1=O (stereo unspecified) |
| 168 to 169 °C | O=C(NCc1ccc(Cl)cc1)c1ccc2sccc2c1O |
| 193 to 194 °C | CC(C)(C)OCCCNC(=O)c1n[nH]cc1NC(=O)c1ccccn1 |
| 260 to 262 °C | O=C1CC2(C(=O)N1)C(=O)N1CCOc3cc(Cl)cc2c31 (stereo unspecified) |
| 177 °C | Cc1cc(SCc2ccc(-c3ccc(C(F)(F)F)cc3)cc2)c2c(c1OCC(=O)O)CCC2 |

| melting point | SMILES |
| --- | --- |
| 101 to 104 °C | OCC(O)Cc1c(Cl)cc2c(c1OCc1ccccc1)CCC2 (stereo unspecified) |
| 60 to 62 °C | C=CCON(CCCCCCCCCCCCCCCCCC)CCCCCCCCCCCCCCCCCC |
| 224 °C | O=C(NC(=O)c1c(F)cccc1F)Nc1ccc(Oc2cccc3ccccc23)nc1 |
| 89 to 90 °C | CSCCOc1ccc(-c2coc3ccc(-c4nnc(C)o4)cc23)cc1 |
| 120 to 125 °C | Cc1cc(F)ccc1C(=Cc1nnnn1C)c1ccc(F)cc1C |
| 178 to 181 °C | CCCCc1nc(C(O)(C(C)C)C(C)C)c(C(N)=O)n1Cc1ccc(-c2ccccc2C(=O)O)cc1 |
| 154 to 156 °C | O=c1nc(-c2c(F)cccc2F)oc(=O)n1-c1cc(Cl)c(Oc2ncc(OC(F)F)cc2Cl)c(Cl)c1 |
| > 300 °C | COC(=O)Cc1cccc(NC(=O)NC2C(=O)Nc3ccccc3NC2=O)c1 |
| 104 to 106 °C | C=CC#CCn1c(-c2ccccc2)nc(C(F)(F)F)c(CC)c1=O |
| 39 to 40 °C | CC#CCOc1cc2c(cc1CCC)OCO2 |
| 49 to 51 °C | CCCCCCOC1CC(C)(C)N(c2nc(Cl)nc(Cl)n2)C(C)(C)C1 |
| 235 to 236 °C | CS(=O)(=O)c1cc(C(=O)N=C(N)N)cc(-n2cccc2)c1 |
| > 290 °C | O=C1c2cccc(-n3c(=O)[nH]c4ncccc4c3=O)c2C2CCCCN12 (stereo unspecified) |
| 90 °C | O=C(O)CC[C@H](NCC(O)C(O)C(O)C(O)C(=O)O)C(=O)O (stereo partly specified) |
| 243 to 244 °C | COc1ccc(-c2cnn3c(N)c(-c4ccc(F)cc4)c(C)nc23)cc1 |
| 69 to 71 °C | Cn1c(C(F)(F)F)cc(=O)n(-c2c(F)ccc3nc(Cl)sc23)c1=O |
| 108 to 111 °C | COc1ccc(N2C=CN(CCC(C)(C)NCC(O)c3ccc(OCc4ccccc4)c(CO)c3)C2)cc1 (stereo unspecified) |
| 192 °C | O=CCCc1cnc(-c2ccccc2)s1 |
| 299 °C | O=C(Oc1ccccc1)N1CCCc2nc3ccccc3c(O)c2C1 |
| 202 to 205 °C | COc1ccc(-c2ccc3c(N4CCOC[C@@H]4C)nc(N4CCOC[C@@H]4C)nc3n2)cc1CO |
| 61 to 62 °C | C=CCc1cccc2nc(Cc3ccccc3Cl)oc12 |

| SMILES | melting point |
| --- | --- |
| CCOC(=O)[C@H]1CCCN2CCc3c([nH]c4ccc(Cl)cc34)[C@@H]12 (racemic) | 88 to 90 °C |
| CN1Cc2c(-c3ncc(CN4CCCCC4)o3)ncn2-c2ccc(F)cc2C1=O | 191 to 193 °C |
| NC(=O)CN1C[C@@H](c2ccccc2)CC1=O | 108 °C |
